Assay results taken from patent US8629318B2, “Transgenic animals for analyzing CYP3A4 cytochrome P450 gene regulation” (University of Sydney, priority 2000, dated 2014).
“Also recorded” adds a separate entry of the source.

Columns and labels:
−13CYP3A4/lacZ transgene [1] = assay: β-galactosidase activity in total liver lysates, ONPG assay, line 9/4; assay type: in vivo, mouse; details: 100 mg/kg i.p. daily for 4 days, FIG. 3A
Procedure: (§1) Administration of xenobiotics to mice. 8-10 week old male and female mice hemizygous for the −CYP3A4/lacZ and −13CYP3A4/lacZ transgenes were used to test the ability of a range of xenobiotics and hormones to activate expression of transgene-derived β-galactosidase. […] The dose used for all reagents to test for induction of the transgene was 100 mg/kg body weight. Dose response studies were carried out in the range of 1-100 mg/kg with male hemizygous transgenic mice.
(§2) Analysis of transgene and mouse Cyp3a gene expression. β-galactosidase activity was visualised in slices and frozen sections of liver and other tissues by staining with X-gal (5-bromo-4-chloro-3-indolyl-β-D-galactopyranoside). Tissues were fixed in 0.25% glutaraldehyde, 0.1 M phosphate buffer pH7.3, 5 mM EGTA, 2 mM MgCl2: washed in 0.1 M phosphate buffer pH7.3, 0.01% sodium deoxycholate, 0.025% NP40, 2 mM MgCl2 and stained by incubation at 37° C. in wash solution supplemented with 1 mg/ml X-gal, 5 mM potassium ferricyanide, and 5 mM potassium ferrocyanide. The level of β-galactosidase activity was determined in whole liver homogenates [100 mg fresh tissue/ml 0.25M Tris-HCl (pH 7.3)] using the O-nitrophenyl-β-D-galactopyranoside (ONPG) assay according to standard techniques. After appropriate dilution the homogenate was incubated with β-galactosidase assay reagent (0.1 M sodium phosphate buffer (pH7.3)/1 mM MgCl2/50 mmol β-mercaptoethanol/0.88 mg/ml ONPG) at 37° C., quenched by the addition of 1 M Na2CO3 and the absorbance at 420 nm determined. The units of β-galactosidase activity are given as A420/mg liver/minute.

−13CYP3A4/lacZ transgene [2] = assay: Xenobiotic induction of transgene expression in line 15/10; assay type: in vivo, mouse; details: data not shown
Procedure: as §1
Analysis of transgene and mouse Cyp3a gene expression. β-galactosidase activity was visualised in slices and frozen sections of liver and other tissues by staining with X-gal (5-bromo-4-chloro-3-indolyl-β-D-galactopyranoside). […] The level of β-galactosidase activity was determined in whole liver homogenates [100 mg fresh tissue/ml 0.25M Tris-HCl (pH 7.3)] using the O-nitrophenyl-β-D-galactopyranoside (ONPG) assay according to standard techniques. After appropriate dilution the homogenate was incubated with β-galactosidase assay reagent (0.1 M sodium phosphate buffer (pH7.3)/1 mM MgCl2/50 mmol β-mercaptoethanol/0.88 mg/ml ONPG) at 37° C., quenched by the addition of 1 M Na2CO3 and the absorbance at 420 nm determined. […]

−13CYP3A4/lacZ transgene [3] = system: −13CYP3A4/lacZ transgene
Procedure: as §1, §2

mouse Cyp3all gene = details: in vivo, ip, 100 mg/kg
Procedure: as §1
Filters were stripped and reprobed with an 18S rRNA oligonucleotide to normalise loading.

Clc1ccccc1C(c1ccccc1)(c1ccccc1)n1ccnc1 [clotrimazole]
relative degree of induction of transgene, β-galactosidase activity in liver lysates (−13CYP3A4/lacZ transgene [1]): intermediate inducers

C[C@@H]1C[C@H]2[C@@H]3CCC4=CC(=O)C=C[C@]4(C)[C@@]3(F)[C@@H](O)C[C@]2(C)[C@@]1(O)C(=O)COP(=O)(O)O [dexamethasone, dexamethasone phosphate]
induction profile of transgene expression (−13CYP3A4/lacZ transgene [2]): most potent activator
thickness of zone of X-gal positive hepatocytes (−13CYP3A4/lacZ transgene [3]; line 9/4, 100 mg/kg, FIG. 4B): up to 10 cells
thickness of zone of hepatocytes expressing the transgene around the central vein (X-gal) (−13CYP3A4/lacZ transgene [3]; line 9/4, low doses, FIG. 4B): 1-2 cells

O=C1NC(=O)C(c2ccccc2)(c2ccccc2)N1 [phenyloin]
relative degree of induction of transgene, β-galactosidase activity in liver lysates (−13CYP3A4/lacZ transgene [1]): intermediate inducers

CC(=O)[C@H]1[C@H](C#N)C[C@H]2[C@@H]3CC=C4C[C@@H](O)CC[C@]4(C)[C@H]3CC[C@@]21C [pregnenolone 16α-carbonitrile]
hepatic transgene expression, X-gal staining of liver slices (cells containing β-galactosidase) (−13CYP3A4/lacZ transgene [3]; female mice line 9/4, 100 mg/kg i.p. daily for 4 days, compared with corn oil treated mice): increased zone of blue staining cells
relative degree of induction of transgene, β-galactosidase activity in liver lysates (−13CYP3A4/lacZ transgene [1]; 100 mg/kg): most potent xenobiotic activators; also recorded: most potent inducers
hepatic Cyp3all mRNA, females versus males (mouse Cyp3all gene): higher levels of Cyp3all mRNA were observed in females than males

CC(=O)[C@H]1CC[C@H]2[C@@H]3CC=C4C[C@@H](O)CC[C@]4(C)[C@H]3CC[C@]12C [pregnenolone]
relative degree of induction of transgene, β-galactosidase activity in liver lysates (−13CYP3A4/lacZ transgene [1]; 100 mg/kg): very weak inducers; also recorded: the induction was weak compared with xenobiotics
